# Values of other authors in patent publication US8828877B2, “Etching solution and trench isolation structure-formation process employing the same” (AZ Electronic Materials USA Corp., priority 2009, dated 2014).
# How the values were obtained:
# [1] = for δH: Hansen solubility parameter, strength of hydrogen bond; for Organic solvent δH: as given in Table 2 for the solvent of the etching solution
# [2] = in water at 20° C.; "any" = can mix with water in any proportion
δH [1],Saturation solubility [2],Organic solvent δH [1],Structure (SMILES)
5.7,32.8 wt %,,COC [Dimethyl ether]
10.4,any,,COC(C)COC(C)COC(C)CO (stereo not shown) [Tripropylene glycol monomethyl ether]
7.2,,,CCOC(C)=O [Ethyl acetate]
8.6,32.3 wt %,,COCOC [Dimethoxymethane]
8.0,12.0 wt %,,COC(C)COC(C)COC(C)=O (stereo not shown) [Dipropylene glycol monomethyl ether acetate]
9.8,19.0 wt %,9.0,COCC(C)OC(C)=O (stereo not shown) [Propylene glycol monomethyl ether acetate]
,≥ 40.0 wt %,,CC(=O)C=O [Methylglyoxal]
,20.0 wt %,,CCC=O [Propion aldehyde]
8.6,5.0 wt %,,C=CCOC(=O)CC(C)=O [Allyl acetoacetate]
10.5,any,,CCOCC(C)O (stereo not shown) [Propylene glycol monoethyl ether]
10.2,9.7 wt %,,C=C(C)C(=O)O [Methacrylic acid]
7.6,25.0 wt %,,COC(C)=O [Methyl acetate]
16.4,,16.4,"CC(C)O [isopropyl alcohol, reference compound]"
9.0,≥ 5.0 wt %,,CCOCC(C)OC(C)=O (stereo not shown) [Propylene glycol monoethyl ether acetate]
4.7,5.0 wt %,,CCC(=O)CC [Diethyl ketone]
11.6,,10.5,COCC(C)O (stereo not shown) [Propylene glycol monomethyl ether]

Structure (SMILES),δH [1],Saturation solubility [2],Organic solvent δH [1]
CCCCOCCOCCOC(C)=O [Diethyl glycol butyl ether acetate],8.2,6.5 wt %,
CCCCOCCOCCO [Diethyl glycol monobutyl ether],10.6,6.5 wt %,
CCOCCOC(C)=O [Ethylene glycol monoethyl ether acetate],10.6,23.0 wt %,
COCCOC(C)=O [Ethylene glycol monomethyl ether acetate],11.6,any,10.6
CCOCC [Diethyl ether],5.1,6.9 wt %,
CCOC [Methyl ethyl ether],6.2,≥ 5.0 wt %,
COC(=O)CC(C)=O [Methyl acetoacetate],8.9,46.0 wt %,
CC(C)=O [Acetone],7.0,any,7.0
COCCOC [Ethylene glycol dimethyl ether],,any,
